Results on 15 compounds are retold here after ChEMBL document CHEMBL1140515, “Virtual screening and bioassay study of novel inhibitors for dengue virus mRNA cap (nucleoside-2'O)-methyltransferase” (Bioorg Med Chem, 2007).

The subject of one assay is Dengue virus. The assay is described as follows: Inhibition of Dengue virus NS5MTase assessed as methylation of 7MeGpppAC5 at 100 uM.
Assay [1] can be described thus: Inhibition of Dengue virus NS5MTase assessed as methylation of 7MeGpppAC5.

The inhibition is the percentage by which the read-out fell short of the control. Turning to `CN(C)S(=O)(=O)c1ccc(Cl)c(NC(=O)COC(=O)CNC(=O)CC23CC4CC(CC(C4)C2)C3)c1`, the inhibition with Dengue virus came to 5%.
`CC(C)[C@@H](N)C(=O)NC[C@H]1CC[C@@H](C(=O)N[C@@H](Cc2ccccc2)C(=O)O)CC1`: the inhibition in the assay on Dengue virus came out at 5%.
Still for that read-out and setting: as for `CC[C@@H](C)[C@H](NS(=O)(=O)c1ccc(C)cc1)C(=O)Oc1ccc2c(c1)oc(=O)c1cc(OC)ccc12`, the figure is 5%.
Same read-out and setting: as for `CCOC(=O)Cn1c(=O)n(C[C@H]2CC[C@H](C(=O)NCCc3ccccc3)CC2)c(=O)c2ccccc21`, the figure is 5%; as for `N[C@H](C(=O)O)[C@@H](O)c1ccc(OCc2ccccc2)c(OCc2ccccc2)c1`, 5%.
The same measure, in the same setting: as for `CC[C@@H](C)[C@H](NS(=O)(=O)c1ccc(C)cc1)C(=O)Oc1cc2oc(=O)cc(-c3ccccc3)c2cc1Cl`, the figure is 5%.
For the compound `O=C(Oc1cccc(NC2=NS(=O)(=O)c3ccccc32)c1)c1ccc(S(=O)(=O)N2CCCCC2)cc1`, the inhibition in the assay with Dengue virus is 5%.
As usually defined, the IC50 is the midpoint of a concentration-inhibition curve. Take `Cc1ccc(C23CC4CC(CC(NC(=O)N[C@@H](Cc5ccccc5)C(=O)O)(C4)C2)C3)cc1`: in assay [1], the IC50 amounted to 60.5 µM. The inhibition in the assay on Dengue virus was 75%.
With `O=C(O)[C@H]1CCCC[C@@H]1C(=O)N[C@H]1CCCC[C@@H]1NC(=O)[C@@H]1CCCC[C@H]1C(=O)O`, in the assay on Dengue virus, the inhibition came out at 5%.
Consider `COC(=O)[C@@H](Cc1ccccc1)NC(=O)NC12CC3CC(C1)CC(c1ccc(C)cc1)(C3)C2`, for which the inhibition in the assay with Dengue virus turned out to be 5%.
Still for that read-out and setting: as for `CC[C@@H](C)[C@H](NS(=O)(=O)c1ccc(C)cc1)C(=O)Oc1ccc2c(-c3ccc(OC)cc3)cc(=O)oc2c1`, the figure is 5%; as for `O=C(N[C@@H](Cc1ccccc1)C(=O)O)c1ccc(C(=O)N[C@H](Cc2ccccc2)C(=O)O)cc1`, 5%; as for `Cc1ccc(S(=O)(=O)N2CCCCC2)cc1NC(=O)COC(=O)CN1C(=O)N[C@@]2(C[C@H](C)CC(C)(C)C2)C1=O`, 5%.
As for `Cc1cc2oc(=O)cc(COC(=O)CN3C(=O)N[C@]4(C[C@H](C)CC(C)(C)C4)C3=O)c2cc1C(C)C`, in the assay with Dengue virus, the inhibition was determined as 5%.
Still for that read-out and setting: as for `C[n+]1cn(CCCCCCn2cc([C@@H](O)c3ccccc3)[n+](C)c2)cc1[C@@H](O)c1ccccc1`, the figure is 5%.
